Reference: ChEMBL document CHEMBL4616635, “Investigations of antiproliferative and antioxidant activity of β-lactam morpholino-1,3,5-triazine hybrids” (Bioorg Med Chem, 2020)
Values after ≈ are worked out from the molar mass of the structure shown.

How the values were obtained:
[1] = Antioxidant activity assessed as DPPH radical scavenging activity measured for 5 mins by UV absorbance analysis; format: functional
SW 1116 = assay: Antiproliferative activity against human SW1116 cells assessed as inhibition of cell growth after overnight incubation by MTT assay; format: functional, cell-based
HepG2 = assay: Antiproliferative activity against human HepG2 cells assessed as inhibition of cell growth after overnight incubation by MTT assay; format: functional, cell-based
MCF7 = assay: Antiproliferative activity against human MCF7 cells assessed as inhibition of cell growth after overnight incubation by MTT assay; format: functional, cell-based
HEK293 = assay: Cytotoxicity against human HEK293 cells assessed as inhibition of cell growth after overnight incubation by MTT assay; format: cell-based
Calf thymus DNA [2] = assay: Binding affinity to calf thymus DNA assessed as binding constant at 68 uM after 2 mins by UV-vis spectroscopy; format: nucleic-acid assay; details: Bos taurus
Calf thymus DNA [3] = assay: Binding affinity to calf thymus DNA assessed as hypochromism by measuring red shift in absorption spectra at 68 uM after 2 mins by UV-vis spectroscopy; format: nucleic-acid assay; details: Bos taurus
Calf thymus DNA [4] = assay: Binding affinity to calf thymus DNA assessed as binding constant at 40 uM after 2 mins by UV-vis spectroscopy; format: nucleic-acid assay; details: Bos taurus
Calf thymus DNA [5] = assay: Binding affinity to calf thymus DNA assessed as hyperchromism by measuring blue shift in absorption spectra at 40 uM after 2 mins by UV-vis spectroscopy; format: nucleic-acid assay; details: Bos taurus
Calf thymus DNA [6] = assay: Binding affinity to calf thymus DNA assessed as hypochromism by measuring red shift in absorption spectra at 40 uM after 2 mins by UV-vis spectroscopy; format: nucleic-acid assay; details: Bos taurus

| Structure (SMILES) | IC50 [1] | IC50 (HepG2) | IC50 (MCF7) | Kb (Calf thymus DNA [2]) | Activity (Calf thymus DNA [3]) | Kb (Calf thymus DNA [4]) | Activity (Calf thymus DNA [5]) | Activity (Calf thymus DNA [6]) | IC50 (SW 1116) | IC50 (HEK293) |
| --- | --- | --- | --- | --- | --- | --- | --- | --- | --- | --- |
| O=C1[C@@H](Oc2ccc(Cl)cc2)[C@@H](c2ccc(Oc3nc(N4CCOCC4)nc(N4CCOCC4)n3)cc2)N1c1ccc(Nc2nc(N3CCOCC3)nc(N3CCOCC3)n2)cc1 | > 10000 µg/mL | > 100 µM | > 100 µM |  |  |  |  |  | > 100 µM | > 100 µM |
| C(=N\c1ccc(Nc2nc(N3CCOCC3)nc(N3CCOCC3)n2)cc1)/c1ccc(Oc2nc(N3CCOCC3)nc(N3CCOCC3)n2)cc1 | > 10000 µg/mL | > 100 µM | > 100 µM |  |  |  |  |  | > 100 µM | > 100 µM |
| Clc1ccc(/C=N/c2ccc(Nc3nc(N4CCOCC4)nc(N4CCOCC4)n3)cc2)cc1 | 275 µg/mL (≈ 0.573 mM) | > 100 µM | > 100 µM |  |  |  |  |  | 93.4 µM | > 100 µM |
| COc1ccc(N2C(=O)[C@@H](Oc3ccccc3)[C@H]2c2ccc(Oc3nc(N4CCOCC4)nc(N4CCOCC4)n3)cc2)cc1 | > 10000 µg/mL | > 100 µM | > 100 µM |  |  |  |  |  | > 100 µM | > 100 µM |
| O=[N+]([O-])c1cccc(/C=N/c2ccc(Nc3nc(N4CCOCC4)nc(N4CCOCC4)n3)cc2)c1 | 445 µg/mL (≈ 0.907 mM) | > 100 µM | > 100 µM |  |  |  |  |  | 15.1 µM | > 100 µM |
| COc1ccc(N2C(=O)C3(c4ccccc4Oc4ccccc43)C2c2ccc(Oc3nc(N4CCOCC4)nc(N4CCOCC4)n3)cc2)cc1 (configuration not stated) | > 10000 µg/mL | > 100 µM | > 100 µM |  |  |  |  |  | 38.4 µM | > 100 µM |
| COc1ccc(/N=C/c2ccc(Oc3nc(N4CCOCC4)nc(N4CCOCC4)n3)cc2)cc1 | 195 µg/mL (≈ 0.409 mM) | > 100 µM | > 100 µM |  |  |  |  |  | > 100 µM | > 100 µM |
| O=C1N(c2ccc(Nc3nc(N4CCOCC4)nc(N4CCOCC4)n3)cc2)C(c2ccc([N+](=O)[O-])cc2)C12c1ccccc1Oc1ccccc12 (configuration not stated) | > 10000 µg/mL | > 100 µM | > 100 µM |  |  |  |  |  | > 100 µM | > 100 µM |
| CCOc1ccc(/N=C/c2ccc(Oc3nc(N4CCOCC4)nc(N4CCOCC4)n3)cc2)cc1 | 50 µg/mL (≈ 0.102 mM) | > 100 µM | > 100 µM |  |  |  |  |  | > 100 µM | > 100 µM |
| O=[N+]([O-])c1ccc(/C=N/c2ccc(Nc3nc(N4CCOCC4)nc(N4CCOCC4)n3)cc2)cc1 | 195 µg/mL (≈ 0.398 mM) | > 100 µM | > 100 µM | 1.08 ×10⁵ /M | -4 nm |  |  |  | 3.32 µM | > 100 µM |
| CN(C)c1ccc(/N=C/c2ccc(Oc3nc(N4CCOCC4)nc(N4CCOCC4)n3)cc2)cc1 | 30 µg/mL (≈ 0.0613 mM) | > 100 µM | > 100 µM |  |  |  |  |  | 15.6 µM | > 100 µM |
| O=C1N(c2ccc(Nc3nc(N4CCOCC4)nc(N4CCOCC4)n3)cc2)C(c2cccc([N+](=O)[O-])c2)C12c1ccccc1Oc1ccccc12 (configuration not stated) | > 10000 µg/mL | > 100 µM | > 100 µM |  |  |  |  |  | > 100 µM | > 100 µM |
| O=C1[C@@H](Oc2ccccc2)[C@@H](c2ccc(Oc3nc(N4CCOCC4)nc(N4CCOCC4)n3)cc2)N1c1ccc(Nc2nc(N3CCOCC3)nc(N3CCOCC3)n2)cc1 (relative stereo) | > 10000 µg/mL | > 100 µM | > 100 µM |  |  |  |  |  | > 100 µM | > 100 µM |
| CCOc1ccc(N2C(=O)[C@@H](Oc3ccccc3)[C@H]2c2ccc(Oc3nc(N4CCOCC4)nc(N4CCOCC4)n3)cc2)cc1 (relative stereo) | 5900 µg/mL (≈ 9.44 mM) | > 100 µM | > 100 µM |  |  |  |  |  | > 100 µM | > 100 µM |
| O=C1O[C@H]([C@@H](O)CO)C(O)=C1O [ASCORBIC ACID] | 195 µg/mL (≈ 1.11 mM) |  |  |  |  |  |  |  |  |  |
| COc1cccc2c1C(=O)c1c(O)c3c(c(O)c1C2=O)C[C@@](O)(C(=O)CO)C[C@@H]3O[C@H]1C[C@H](N)[C@H](O)[C@H](C)O1 [DOXORUBICIN] |  | 7.3 µM |  |  |  |  |  |  | 6.9 µM | 6.1 µM |

Now from value to compound, other results behind:

| IC50 [1] | IC50 (HepG2) | IC50 (MCF7) | Kb (Calf thymus DNA [2]) | Activity (Calf thymus DNA [3]) | Kb (Calf thymus DNA [4]) | Activity (Calf thymus DNA [5]) | Activity (Calf thymus DNA [6]) | Structure (SMILES) | IC50 (SW 1116) | IC50 (HEK293) |
| --- | --- | --- | --- | --- | --- | --- | --- | --- | --- | --- |
| > 10000 µg/mL | > 100 µM | > 100 µM |  |  | 0.935 ×10⁵ /M | -2 nm |  | O=C1N(c2ccc(Nc3nc(N4CCOCC4)nc(N4CCOCC4)n3)cc2)C(c2ccc(Cl)cc2)C12c1ccccc1Oc1ccccc12 (configuration not stated) | 2.06 µM | > 100 µM |
| 4800 µg/mL (≈ 7.82 mM) | > 100 µM | > 100 µM |  |  |  |  |  | O=C1[C@@H](Oc2ccccc2)[C@@H](c2ccc(Cl)cc2)N1c1ccc(Nc2nc(N3CCOCC3)nc(N3CCOCC3)n2)cc1 (relative stereo) | > 100 µM | > 100 µM |
| > 10000 µg/mL | > 100 µM | > 100 µM |  |  |  |  |  | CCOc1ccc(N2C(=O)[C@@H](Oc3ccc(Cl)cc3)[C@H]2c2ccc(Oc3nc(N4CCOCC4)nc(N4CCOCC4)n3)cc2)cc1 (relative stereo) | 1.53 µM | > 100 µM |
| > 10000 µg/mL | > 100 µM | > 100 µM |  |  |  |  |  | O=C1[C@@H](Oc2ccc(Cl)cc2Cl)[C@@H](c2cccc([N+](=O)[O-])c2)N1c1ccc(Nc2nc(N3CCOCC3)nc(N3CCOCC3)n2)cc1 (relative stereo) | > 100 µM | > 100 µM |
| > 10000 µg/mL | > 100 µM | > 100 µM |  |  | 0.943 ×10⁴ /M | -2 nm |  | O=C1[C@@H](Oc2ccccc2)[C@@H](c2cccc([N+](=O)[O-])c2)N1c1ccc(Nc2nc(N3CCOCC3)nc(N3CCOCC3)n2)cc1 (relative stereo) | 1.98 µM | > 100 µM |
| 9600 µg/mL (≈ 14.1 mM) | > 100 µM | > 100 µM |  |  |  |  |  | COc1ccc(N2C(=O)[C@@H](Oc3ccc(Cl)cc3Cl)[C@H]2c2ccc(Oc3nc(N4CCOCC4)nc(N4CCOCC4)n3)cc2)cc1 (relative stereo) | 2.7 µM | > 100 µM |
| > 10000 µg/mL | > 100 µM | > 100 µM |  |  |  |  |  | O=C1[C@@H](Oc2ccc(Cl)cc2)[C@@H](c2cccc([N+](=O)[O-])c2)N1c1ccc(Nc2nc(N3CCOCC3)nc(N3CCOCC3)n2)cc1 (relative stereo) | 100 µM | > 100 µM |
| 5800 µg/mL (≈ 8.36 mM) | > 100 µM | > 100 µM |  |  |  |  |  | O=C1[C@@H](Oc2ccc(Cl)cc2Cl)[C@@H](c2ccc([N+](=O)[O-])cc2)N1c1ccc(Nc2nc(N3CCOCC3)nc(N3CCOCC3)n2)cc1 (relative stereo) | 35.7 µM | > 100 µM |
| > 10000 µg/mL | > 100 µM | > 100 µM |  |  |  |  |  | O=C1[C@@H](Oc2ccc(Cl)cc2Cl)[C@@H](c2ccc(Oc3nc(N4CCOCC4)nc(N4CCOCC4)n3)cc2)N1c1ccc(Nc2nc(N3CCOCC3)nc(N3CCOCC3)n2)cc1 (relative stereo) | > 100 µM | > 100 µM |
| 6200 µg/mL (≈ 9.61 mM) | > 100 µM | > 100 µM |  |  |  |  |  | COc1ccc(N2C(=O)[C@@H](Oc3ccc(Cl)cc3)[C@H]2c2ccc(Oc3nc(N4CCOCC4)nc(N4CCOCC4)n3)cc2)cc1 (relative stereo) | 30 µM | > 100 µM |
| > 10000 µg/mL | > 100 µM | > 100 µM |  |  | 2.6 ×10⁵ /M |  | -5 nm | O=C1[C@@H](Oc2ccc(Cl)cc2)[C@@H](c2ccc([N+](=O)[O-])cc2)N1c1ccc(Nc2nc(N3CCOCC3)nc(N3CCOCC3)n2)cc1 (relative stereo) | 4.88 µM | > 100 µM |
| > 10000 µg/mL | > 100 µM | > 100 µM |  |  |  |  |  | O=C1[C@@H](Oc2ccccc2)[C@@H](c2ccc([N+](=O)[O-])cc2)N1c1ccc(Nc2nc(N3CCOCC3)nc(N3CCOCC3)n2)cc1 (relative stereo) | 17.5 µM | > 100 µM |
| > 10000 µg/mL | > 100 µM | > 100 µM |  |  |  |  |  | O=C1[C@@H](Oc2ccc(Cl)cc2)[C@@H](c2ccc(Cl)cc2)N1c1ccc(Nc2nc(N3CCOCC3)nc(N3CCOCC3)n2)cc1 (relative stereo) | > 100 µM | > 100 µM |
| > 10000 µg/mL | > 100 µM | > 100 µM |  |  |  |  |  | O=C1[C@@H](Oc2ccc(Cl)cc2Cl)[C@@H](c2ccc(Cl)cc2)N1c1ccc(Nc2nc(N3CCOCC3)nc(N3CCOCC3)n2)cc1 (relative stereo) | 86.2 µM | > 100 µM |
